# Experiments:
# [1] = tested on: high-level noise exposure mice; assay: Evaluation of inner ear disorders in high-level noise exposure mice models (ABR threshold, cochlear hair cell loss); assay type: in vivo, B6 mice; settings: for effect on increase of the auditory brainstem response (ABR) threshold caused by exposure to high-level noise: one week and two weeks after exposure
# Experimental: The test was carried out using high-level noise exposure mice. […] The auditory brainstem response (ABR) threshold was measured immediately before the exposure to high-level noise (initial value). At 1 week and 2 weeks after the exposure for 4 hours, the ABR was measured. For the prevention test, after measuring the ABR threshold at 2 weeks after, the inner ears were excised and fixed so as to allow pathological assessment of the loss of two types of hair cells, or inner and outer hair cells within the cochlea. The pathological assessment of the hair cell loss was carried out on the inner hair cells (one line of inner hair cells is represented by IHC) and outer hair cells (three lines of outer hair cells are represented by OHC 1, 2, and 3 from the inside to outside). The verification was carried out by analysis of variance (Fisher's test as post-hoc test). The mice were divided into two groups: a group exposed to high-level noise (control group, n=10), and a group exposed to high-level noise and administrated with fidarestat at a dose of 32 mg/kg/day (fidarestat-administrated group, n=10). The ABR and pathological assessment were carried out in 10 and 5 mice of each group, respectively. Fidarestat was administered mixed with the feed during the period from two days before to two weeks after the exposure to high-level noise. The mice were divided into five groups: a group exposed to high-level noise (control group, n=6), two group exposed to high-level noise and administrated with fidarestat at doses of 8 mg/kg/day or 32 mg/kg/day (fidarestat-administrated groups, n=6), a group exposed to high-level noise, and administrated with prednisolone at a dose of 1 mg/kg/day (prednisolone-administrated group, n=6), and a group exposed to high-level noise, and administrated of combination with prednisolone at a dose of 1 mg/kg/day and fidarestat at a dose of 32 mg/kg/day (combination use group, n=6). The ABR was carried out in 6 mice of each group. Fidarestat was administered mixed with the feed during the period immediately after to two weeks after the exposure to high-level noise. Prednisolone was orally administered immediately after the exposure to high-level noise.
# [2] = tested on: outer hair cells of the organ of Corti; assay: Gentamicin-induced loss of outer hair cells model (cultured organ of Corti); assay type: cell-based, SD rats; settings: 48 hours culture; for loss rate of gentamicin-induced outer hair cells loss: control 50%
# Experimental: After excision of the cochlea from SD rats of 3-5 days old, lateral walls were removed, and then the basal turn of the organ of Corti was extracted. The organ of Corti was incubated overnight, and then cultured in culture solutions containing gentamicin ([…]) and fidarestat at different concentrations (0, 0.05, 0.1, 0.2, 0.5, 1, and 2 μM) for 48 hours. After culturing, the organ of corti was fixed with 4% paraformaldehyde. The culture solution was a Dulbecco's modified eagles medium (DMEM solution) containing 10% fetal bovine serum, HEPES ([…]), and penicillin G ([…]), and the organ was cultured at 37° C., 5% CO2, at a humidity of 95%.
structure (smiles),measurement,setting,value
"NC(=O)[C@@H]1C[C@]2(NC(=O)NC2=O)c2cc(F)ccc2O1 [fidarestat, (2S,4S)-6-fluoro-2′,5′-dioxospiro[chroman-4,4′-imidazolidine]-2-carboxamide]",therapeutic effect on ABR threshold increase compared to prednisolone-administrated group,[1]; fidarestat 32 mg/kg/day vs prednisolone 1 mg/kg/day,equivalent effect
same,effect on increase of the loss rate of cochlear outer hair cells,"[1]; prophylactic 32 mg/kg/day, two weeks after exposure to high-level noise",significantly inhibited
same,effect on increase of the auditory brainstem response (ABR) threshold caused by exposure to high-level noise,"[1]; prophylactic administration, 32 mg/kg/day mixed with feed from two days before to two weeks after exposure",significantly inhibited
same,effect on increase of the auditory brainstem response (ABR) threshold caused by exposure to high-level noise,"[1]; therapeutic administration, mixed with feed from immediately after to two weeks after exposure",significantly inhibited
same,loss rate of gentamicin-induced outer hair cells loss,[2]; fidarestat 0.1 μM,significantly reduced
same,outer hair cells survival,[2]; fidarestat 0.5 μM or more,75%
same,loss rate of gentamicin-induced outer hair cells loss,[2]; fidarestat 0.5 μM or more,25%

# — patent US20130005698A1, “PHARMACEUTICAL FOR PREVENTING OR TREATING AN INNER EAR DISORDER” (University of Tsukuba, priority 2010, published 2013)
